SMILES strings stand for the structures.

As usually defined, the IC50 is the concentration at which inhibition is half-maximal.

What all share (type): biochemical
Assay [1] addresses T1, reuptake of noradrenaline (NA) in synaptosomes (Rattus norvegicus, UniProt Q63380).
T1 construct: in synaptosomes as described in WO 97/16451; from tissue
In words: Inhibition of NA reuptake in synaptosomes. The following applies: 3H-NA, read-out: NA-uptake IC50. The protocol: (§1) Compounds were tested for their ability to inhibit the reuptake of the monoamine neurotransmitters dopamine (DA) noradrenaline (NA) and serotonine (5-HT) in synaptosomes as described in WO 97/16451 (NeuroSearch A/S).
(§2) The test values are given as IC50 (the concentration (μM) of the test substance which inhibits the specific binding of ^3H-DA, ^3H-NA, or ^3H-5-HT by 50%).

In assay [2] the target is T2, reuptake of dopamine (DA) in synaptosomes (Rattus norvegicus, UniProt P23977).
T2 construct: in synaptosomes as described in WO 97/16451; from tissue
Kind of assay: Inhibition of DA reuptake in synaptosomes. Conditions: 3H-DA, read-out: DA-uptake IC50. As to the method:
as §1, §2

For assay [3], the target named is T3, reuptake of serotonine (5-HT) in synaptosomes (Rattus norvegicus, UniProt P31652).
T3 construct: serotonine (5-HT) in synaptosomes; from tissue
In words: Inhibition of 5-HT reuptake in synaptosomes. The following applies: 3H-5-HT, read-out: 5-HT-uptake IC50. The protocol: as §1, §2

T3 sequence (P31652 whole entry): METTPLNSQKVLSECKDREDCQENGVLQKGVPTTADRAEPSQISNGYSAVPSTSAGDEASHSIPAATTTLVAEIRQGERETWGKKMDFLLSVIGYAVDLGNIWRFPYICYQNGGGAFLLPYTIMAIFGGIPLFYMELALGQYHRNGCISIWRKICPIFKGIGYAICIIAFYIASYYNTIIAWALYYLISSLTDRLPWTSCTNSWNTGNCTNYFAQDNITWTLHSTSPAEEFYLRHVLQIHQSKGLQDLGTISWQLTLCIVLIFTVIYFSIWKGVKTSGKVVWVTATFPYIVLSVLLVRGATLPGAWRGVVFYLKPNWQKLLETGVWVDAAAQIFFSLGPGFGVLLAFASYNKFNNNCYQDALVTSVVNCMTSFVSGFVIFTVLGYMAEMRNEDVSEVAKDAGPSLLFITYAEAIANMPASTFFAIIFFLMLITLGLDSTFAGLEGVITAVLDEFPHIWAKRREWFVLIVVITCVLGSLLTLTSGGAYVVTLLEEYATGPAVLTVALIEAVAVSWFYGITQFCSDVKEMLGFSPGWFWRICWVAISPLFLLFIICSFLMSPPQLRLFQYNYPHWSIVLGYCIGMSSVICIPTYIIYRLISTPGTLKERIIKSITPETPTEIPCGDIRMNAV
T2 sequence (P23977 whole entry): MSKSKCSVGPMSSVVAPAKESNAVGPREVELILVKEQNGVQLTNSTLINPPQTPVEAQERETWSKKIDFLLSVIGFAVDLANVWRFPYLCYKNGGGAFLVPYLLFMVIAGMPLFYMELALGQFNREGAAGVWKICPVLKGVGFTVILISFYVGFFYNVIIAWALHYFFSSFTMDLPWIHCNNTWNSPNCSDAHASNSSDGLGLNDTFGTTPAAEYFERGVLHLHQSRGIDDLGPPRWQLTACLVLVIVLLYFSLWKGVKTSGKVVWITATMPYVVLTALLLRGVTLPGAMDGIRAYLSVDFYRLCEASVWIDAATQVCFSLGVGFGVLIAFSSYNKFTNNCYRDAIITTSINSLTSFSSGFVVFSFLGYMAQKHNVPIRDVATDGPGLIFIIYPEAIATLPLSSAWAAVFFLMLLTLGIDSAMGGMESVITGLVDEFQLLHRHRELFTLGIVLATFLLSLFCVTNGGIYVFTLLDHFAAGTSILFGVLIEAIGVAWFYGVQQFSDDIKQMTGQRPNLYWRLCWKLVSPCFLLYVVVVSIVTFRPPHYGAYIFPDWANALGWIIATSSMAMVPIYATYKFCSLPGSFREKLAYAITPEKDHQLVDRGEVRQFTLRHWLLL
T1 sequence (Q63380 1-617): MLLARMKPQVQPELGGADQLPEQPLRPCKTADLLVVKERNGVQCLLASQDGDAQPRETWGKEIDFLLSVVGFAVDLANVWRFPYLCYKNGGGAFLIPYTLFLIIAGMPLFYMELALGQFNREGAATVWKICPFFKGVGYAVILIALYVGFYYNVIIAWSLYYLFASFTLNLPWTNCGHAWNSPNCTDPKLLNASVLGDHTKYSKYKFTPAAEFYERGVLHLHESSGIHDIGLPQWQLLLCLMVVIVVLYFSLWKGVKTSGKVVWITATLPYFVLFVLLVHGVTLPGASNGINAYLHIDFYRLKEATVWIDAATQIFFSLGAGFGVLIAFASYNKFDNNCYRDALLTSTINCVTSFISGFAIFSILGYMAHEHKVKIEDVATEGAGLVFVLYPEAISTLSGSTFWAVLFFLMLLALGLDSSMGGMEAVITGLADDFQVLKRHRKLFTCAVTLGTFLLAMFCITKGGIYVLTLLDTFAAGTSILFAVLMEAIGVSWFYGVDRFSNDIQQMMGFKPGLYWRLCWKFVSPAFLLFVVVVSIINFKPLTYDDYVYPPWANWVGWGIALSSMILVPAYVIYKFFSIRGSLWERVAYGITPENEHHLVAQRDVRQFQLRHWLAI

For `CC1(C)CC(Oc2ccc3cc(O)ccc3n2)CC(C)(C)N1` [2-(2,2,6,6-Tetramethyl-piperidin-4-yloxy)-quinolin-6-ol], the IC50 in assay [1] came to 130 nM; in assay [2], 78 nM; in assay [3] it was 13 nM.
Consider `CC1(C)CC(Oc2ccc3ccccc3n2)CC(C)(C)N1` [2-(2,2,6,6-Tetramethyl-piperidin-4-yloxy)-quinoline], for which the figures for the IC50 in assay [1], in assay [2] and in assay [3] were 13 nM, 180 nM and 0.68 nM, respectively.

For the origin of these results see patent US20110136862A1, “NOVEL TETRAMETHYL SUBSTITUTED PIPERIDINE DERIVATIVES AND THEIR USE AS MONOAMINE NEUROTRANSMITTER RE-UPTAKE INHIBITORS” (NEUROSEARCH A/S, priority 2008, published 2011).
